Experimental data reported in publication PMC12550625, “A Potent Oral Sialylation Inhibitor Augments the Immunotherapy in Pancreatic Ductal Adenocarcinoma” (ACS Central Science, 2025).

What was measured:
ST3Gal1 = molecular target: T1, ST3Gal1 (Sus scrofa, UniProt Q02745); test: SPR (CM5 chip, immobilized purified ST3Gal1); format: binding
T1 construct: Δ45, N-terminal 6xHis-MBP fusion
T1 sequence (Q02745 46-343): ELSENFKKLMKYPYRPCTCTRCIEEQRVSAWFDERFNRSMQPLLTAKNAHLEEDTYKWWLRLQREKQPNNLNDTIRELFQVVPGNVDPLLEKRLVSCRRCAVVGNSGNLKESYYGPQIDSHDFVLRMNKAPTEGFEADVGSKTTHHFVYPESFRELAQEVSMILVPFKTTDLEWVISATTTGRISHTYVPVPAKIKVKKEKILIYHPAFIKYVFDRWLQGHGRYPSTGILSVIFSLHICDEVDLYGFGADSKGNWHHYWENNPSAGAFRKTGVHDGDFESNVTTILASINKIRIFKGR

ST6Gal1 = molecular target: T2, ST6Gal1 (Homo sapiens, UniProt P15907); test: SPR (CM5 chip, immobilized purified ST6Gal1); format: binding
T2 construct: Δ131, 3xFLAG
T2 sequence (P15907 132-406): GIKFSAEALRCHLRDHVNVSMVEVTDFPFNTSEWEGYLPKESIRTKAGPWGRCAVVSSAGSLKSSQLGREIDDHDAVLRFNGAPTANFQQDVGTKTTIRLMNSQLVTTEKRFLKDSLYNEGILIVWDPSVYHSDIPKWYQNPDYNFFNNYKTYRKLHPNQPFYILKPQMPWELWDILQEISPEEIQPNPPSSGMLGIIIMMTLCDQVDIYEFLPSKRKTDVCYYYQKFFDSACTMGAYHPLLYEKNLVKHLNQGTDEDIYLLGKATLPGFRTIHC
Text: SPR (CM5 chip, immobilized purified ST6Gal1) on ST6Gal1 | Pull-down and SPR analyses confirmed that Y-320 binds to ST6Gal1 with high affinity

## Cc1c(C(=O)Nc2ccc(N3CCC(N4CCOCC4)CC3)c(C#N)c2)cnn1-c1ccc(Cl)cc1 [Y-320]
ST3Gal1
  Kd: 709 nM
ST6Gal1
  Kd: 885 nM
